We go through one compound from US20220218670A1, “METHODS OF TREATING DISEASES CHARACTERISED BY VASOCONSTRICTION” (Gesynta Pharma AB, priority 2016, published 2022).

The structures appear in SMILES notation.

Format in all cases: in vivo
The subject of experiment [1] is Prmt1. Briefly: Gene expression in renal medulla (TaqMan), gene for synthesis of ADMA. The following applies: wild-type mice, parecoxib 100 mg/kg in drinking water for 5 days, FIG. 2. The procedure: (§1) Experiments were performed on male and female mPGES-1^−/− and their wild-type mPGES-1^+/+ littermate mice at 6-8 weeks of age. […] All mice were housed with a 12 h light/dark cycle in a climate-controlled environment, and were fed with standard rodent chow with water ad libitum. All mice experiments were conducted in line with EU directive 2010/63/EU and according to guidelines from the Swedish Veterinary board the Guide for the Care and Use of Laboratory Animals published by the US National Institutes of Health (NIH Publication No. 85-23, revised 1996). […]
(§2) RNA was isolated from renal medulla homogenates using a magnetic silica-bead isolation kit (Life Technologies, UK) and converted to cDNA using reverse transcriptase (Thermo Fisher Scientific, UK) with oligo(dT) primers (Life Technologies, UK). Gene expression levels were determined using TaqMan hydrolysis probes (Life Technologies, UK) recognising Prmt1 (probe ID: Mm00480133_m1 or Agxt2 (probe ID: Mm01304088_m1). Data were normalised to expression of the housekeeping genes 18S (probe ID: Mm03928990_g1) and Gapdh (probe ID: Mm99999915_g1) and relative expression compared using the comparative Ct method.

For experiment [2], the system named is ADMA. Briefly: Circulating ADMA in plasma by immunoassay after COX-2 inhibition in mice. The conditions noted are these: wild-type mice; parecoxib 100 mg/kg in drinking water for 5 days; FIG. 1. How it is done: Experiments were performed on male and female mPGES-1^−/− and their wild-type mPGES-1^+/+ littermate mice at 6-8 weeks of age. […] All mice were housed with a 12 h light/dark cycle in a climate-controlled environment, and were fed with standard rodent chow with water ad libitum. All mice experiments were conducted in line with EU directive 2010/63/EU and according to guidelines from the Swedish Veterinary board the Guide for the Care and Use of Laboratory Animals published by the US National Institutes of Health (NIH Publication No. 85-23, revised 1996). Studies were sanctioned by the Karolinska Institute ethics committee (dnr. N86_13 and N364_11), the Shantou University Institutional Animal Research and Use Committee and/or the Imperial College London Ethical Review Panel (PPL 70/7013 and 70/8422). Where indicated, wild-type (mPGES-1^+/+) mice were treated with the selective COX-2 inhibitor, parecoxib (100 mg/kg; Pfizer, USA) added to their drinking water for 5 days prior to tissue collection as we have done before (see Ahmetaj-Shala, B. et al., Circulation, 131, 633-642 (2015)).
Plasma was separated by centrifugation for the following circulating mediators measured by immunoassay: ADMA (DLD Diagnostika, Germany), PGE2 (Cisbio Bioassays, France).

Experiment [3] has as its system Agxt2. Nature of the experiment: Gene expression in renal medulla (TaqMan), gene for degradation of ADMA. The conditions noted are these: wild-type mice, parecoxib 100 mg/kg in drinking water for 5 days, FIG. 3. How it is done: as §1, §2

For the compound `CCC(=O)NS(=O)(=O)c1ccc(-c2c(-c3ccccc3)noc2C)cc1` [parecoxib], the “expression of genes responsible for synthesis of ADMA (Prmt1)” value in experiment [1] was “increased expression of genes responsible for synthesis of ADMA (Prmt1)”. Also, the “plasma levels of ADMA” value in experiment [2] was “increased levels of ADMA”. The “expression of genes responsible for degradation of ADMA (Agxt2)” value in experiment [3] was “increased expression of genes responsible for degradation of ADMA (Agxt2)”.
